Columns and labels:
[1] = system: mouse model of NDI; experiment: Mouse model of NDI induced with V2R antagonist OPC; type: in vivo
Text: Mice were placed in metabolic cages for assessment of daily water intake and urine output. (A) daily water intake (n=4 mice per group). (B) Daily urine output (n=4 mice per group). (C) Urine osmolality (n=4 mice per group). (D) Urinary sPRR excretion (n=4 mice per group). Data are shown as mean±SE. In A-C, #P<0.05 vs. OPC alone; in D*P<0.05 vs. control. (E) Schematic illustration of the mechanism of action of sPRR. In the lumen of the distal nephron, sPRR binds FZD8 in a receptor complex on the apical membrane of principal cells, resulting in the activation of β-catenin, which promotes cAMP accumulation, ultimately leading to increased AQP2 transcription and enhanced urine concentration.
In support of this notion, it has been shown that exposure of the CD cells to AVP stimulates the release of sPRR. FIG. 8E provides a schematic illustration of the mechanism of action of sPRR in the CD principal cells.
Urinary or medium sPRR was determined using a commercially sPRR enzyme immunoassay (EIA) kit (catalog no. JP27782; Immuno-Biological Laboratories) according to the manufacturer's instructions.

[2] = system: Wnt/β-catenin pathway; experiment: Acute and chronic responses to AVP (cAMP, AQP2) in primary rat IMCD cells; type: cell-based; settings: XAV pretreatment 1 h
Experimental: FIGS. 5A-5F show a distinct role of the Wnt/β-catenin pathway in the acute and chronic responses to AVP in primary rat IMCD cells. The IMCD cells were pretreated for 1 h with XAV and were treated for 30 min or 24 h with 10 nM AVP. (A) At 30 min of AVP treatment, the medium was assayed for cAMP using ELISA (n=6 per group). (B and C) Membrane fraction (n=6 per group) (B) and cytosolic fraction (n=6 per group) (C) were subjected to immunoblotting analysis of AQP2. (D-F) At 24 h, medium cAMP was determined (n=6 per group) (D), whole-cell lysates were subjected to immunoblotting analysis of AQP2 (n=6 per group) (E), and total RNA was subjected to quantitative RT-PCR analysis of AQP2 mRNA (n=4 per group) (F). Data are shown as mean±SE; *P<0.05 vs. control; #P<0.05 vs. AVP alone.
For sPRR signaling studies, primary IMCD cells were prepared from 4-wk-old SD rats as previously described (35). The cells were grown in Transwell plates (catalog no. 29442-074; VWR International) with DMEM/F-12 medium containing 10% (vol/vol) FBS, 0.5 μM 8-Br-cAMP, 130 mM NaCl, and 80 mM urea. […] At the end of the experiments, the medium was collected for biochemical assays.
The membrane and cytosolic fractions of proteins were extracted using a kit according to the manufacturer's instructions (catalog no. BSP002; Bio Basic Inc.).

[3] = system: Sprague-Dawley (SD) rats; experiment: Water balance and renal AQP2 in SD rats, basal and water deprivation; type: in vivo, rat
Experimental: FIGS. 6A-6H show a role of the Wnt/β-catenin pathway in urine-concentrating capability in rats. SD Rats were administered vehicle, OMP, or XAV and were placed in metabolic cages for assessment of the state of water metabolism at basal condition (A-C) or after 24-h WD (D-H) (n=5 rats per group). At basal the condition, water intake (A), urine volume (B), and urine osmolality (C) were determined. (D-F) During 24-h WD, urine volume (D), urine osmolality (E), and body-weight (BW) changes (F) were monitored. (G and H) At the end of the experiment plasma osmolality (G) and Hct (H) were measured. *P<0.05 vs. control; #P<0.05 vs. WD alone.
FIGS. 7A-7F show an in vivo role of the Wnt/β-catenin pathway in the regulation of renal AQP2 expression during antidiuresis in rats. (A and B) To assess renal β-catenin activation by WD, the nuclear fraction of renal cortex (n=4 rats per group) (A) and the inner medulla (n=4 rats per group) (B) from control and dehydrated rats were subjected to immunoblotting analysis of β-catenin. (C-F) Immunoblotting analysis of AQP2 expression was performed on the renal cortex and the inner medulla of rats treated with vehicle or WD with (C) or without (D) OMP or with (E) or without (F) XAV (n=5 rats per group). Data are shown as mean±SE; *P<0.05 vs. control; #P<0.05 vs. WD. CO, cortex; IM, inner medulla.
To probe the in vivo role of β-catenin signaling in fluid homeostasis, OMP and XAV were administered to Sprague-Dawley (SD) rats under basal conditions and during […] water deprivation (WD) and evaluated their impact on water balance.
Renal tissues were lysed and subsequently sonicated. Protein concentrations were determined using Coomassie reagent. Forty micrograms of protein from each sample were denatured in boiling water, separated by SDS/PAGE, and transferred onto nitrocellulose membranes. Blots were blocked 1 h with 5% nonfat dry milk in Tris-buffered saline (TBS), followed by overnight incubation with primary antibody. After washing with TBS, blots were incubated with goat anti-rabbit/mouse HRP-conjugated secondary antibody and visualized using ECL. The blots were quantitated by using Image-Pro Plus (Media Cybernetics). The primary antibodies were goat anti-AQP2 antibody, rabbit anti-PRR-N antibody, and rabbit anti-FZD8 antibody (all from Santa Cruz), rabbit anti-V2R antibody (Abcam), and goat anti-β-catenin antibody (Novus).

[4] = system: AQP2; experiment: AQP2 expression in primary rat IMCD cells (quantitative RT-PCR, immunoblotting); type: cell-based; settings: inhibitor 10 μM pretreatment 1 h, then 10 nM sPRR-His 24 h

| SMILES | water intake, urine output, urine osmolality ([1]; C57/BL6 mice, OPC via gavage 30 mg·kg^−1·d^−1 for 3 d) | urinary sPRR excretion ([1]; OPC-treated mice) | rapid rise of cAMP and redistribution of AQP2 from the cytosol to the membrane in response to AVP ([2]; 30-min exposure to 10 nM AVP) | AVP-induced increases in cAMP level, total protein abundance and mRNA expression of AQP2 ([2]; 24 h 10 nM AVP) | WD-induced increase of AQP2 protein abundance in renal cortex and inner medulla ([3]; WD, immunoblotting) | water balance (urine volume, water intake, urine osmolality) ([3]; basal conditions, administration over 48 h) | plasma osmolality and hematocrit (Hct) ([3]; during 48-h WD) | urine osmolality ([3]; during 48-h WD) | urine volume ([3]; during 48-h WD) | weight loss ([3]; during 48-h WD) | sPRR-His-induced AQP2 protein expression, effect of inhibitor [4] |
| --- | --- | --- | --- | --- | --- | --- | --- | --- | --- | --- | --- |
| Cc1ccccc1C(=O)Nc1ccc(C(=O)N2CCCC(N(C)C)c3ccccc32)cc1 (centres unmarked) [OPC] | polydipsia, polyuria, and hypoosmotic urine | suppressed significantly |  |  |  |  |  |  |  |  |  |
| Oc1nc(-c2ccc(C(F)(F)F)cc2)nc2c1CSCC2 [XAV939] |  |  | unaffected | effectively attenuated | attenuated significantly | polyuria, polydipsia, and hypoosmotic urine | greater increases | decreased | increased | exaggerated | blunted |

Source: patent US11911442B2, “Use of soluble pro(renin) receptor to treat metabolic disorders and related conditions” (priority 2017, dated 2024)
